Test results reported in patent publication US20040053972A1, “Medicinal compositions having improved absorbability” (priority 2000, published 2004).

Legend:
[1] = test system: human breast cancer cell line BT-474; assay: In vitro inhibition of growth of breast cancer cell BT-474; format: cell-based; settings: 120 h, BT-474 cells, heregulin, cultured for 5 days, SRB staining
Protocol: In vitro Inhibition of Growth of Breast Cancer Cell BT-474
In each well of a 96-well microtiter plate, 100 μl (containing 1,000 cells) of a cell suspension of human breast cancer cell line BT-474 was seeded and incubated at 37° C. in a 5% carbon dioxide gas incubator. On the next day, 100 μl of the 2-fold serial dilution of a solution of each test compound prepared by using 250 μl of a heregulin solution, which was adjusted so as to be the final concentration of 0.8 μg/mL, was added to each well and cultured for 5 days. The solution containing the test compound was removed and the cells were washed and fixed with a 50% trichloroacetic acid solution. To the cells was added a 0.4% (W/V) solution of pigment SRB (dissolved in 1% acetic acid) to fix as well as stain the cell protein (Skehan P. et al., Journal of the National Cancer Institute Vol. 82, pp. 1107-1112, 1990). The pigment solution was removed and the remainder was washed with a 1% acetic acid solution. Then, 100 μl of an extracting solution (10 mM Tris buffer) was added thereto to extract the pigment. The optical density of the extract at the wavelength of 550 nm was measured to determine the amount of the cells in terms of the amount of the protein. The proportion of the amount of remaining protein of each treated group was determined by taking the amount of protein of the control to which no solution of a test compound was added as 100% to calculate the value of the concentration of the compound required for inhibiting the remaining cells by 50% of that of the control (IC50)

HER2 = target: T1, HER2 (Homo sapiens, UniProt P04626); assay: Inhibition of phosphorylation of receptor tyrosine (HER2) in human breast cancer cells MCF-7; format: cell-based; settings: MCF-7 cells, test compound 2 hours, then heregulin 0.8 μg/mL for 5 minutes
T1 construct: amount of phosphorylation of HER2 tyrosine of the cells; endogenous in cells; host or cells: MCF-7 human breast cancer cell line
T1 sequence (P04626 23-1255): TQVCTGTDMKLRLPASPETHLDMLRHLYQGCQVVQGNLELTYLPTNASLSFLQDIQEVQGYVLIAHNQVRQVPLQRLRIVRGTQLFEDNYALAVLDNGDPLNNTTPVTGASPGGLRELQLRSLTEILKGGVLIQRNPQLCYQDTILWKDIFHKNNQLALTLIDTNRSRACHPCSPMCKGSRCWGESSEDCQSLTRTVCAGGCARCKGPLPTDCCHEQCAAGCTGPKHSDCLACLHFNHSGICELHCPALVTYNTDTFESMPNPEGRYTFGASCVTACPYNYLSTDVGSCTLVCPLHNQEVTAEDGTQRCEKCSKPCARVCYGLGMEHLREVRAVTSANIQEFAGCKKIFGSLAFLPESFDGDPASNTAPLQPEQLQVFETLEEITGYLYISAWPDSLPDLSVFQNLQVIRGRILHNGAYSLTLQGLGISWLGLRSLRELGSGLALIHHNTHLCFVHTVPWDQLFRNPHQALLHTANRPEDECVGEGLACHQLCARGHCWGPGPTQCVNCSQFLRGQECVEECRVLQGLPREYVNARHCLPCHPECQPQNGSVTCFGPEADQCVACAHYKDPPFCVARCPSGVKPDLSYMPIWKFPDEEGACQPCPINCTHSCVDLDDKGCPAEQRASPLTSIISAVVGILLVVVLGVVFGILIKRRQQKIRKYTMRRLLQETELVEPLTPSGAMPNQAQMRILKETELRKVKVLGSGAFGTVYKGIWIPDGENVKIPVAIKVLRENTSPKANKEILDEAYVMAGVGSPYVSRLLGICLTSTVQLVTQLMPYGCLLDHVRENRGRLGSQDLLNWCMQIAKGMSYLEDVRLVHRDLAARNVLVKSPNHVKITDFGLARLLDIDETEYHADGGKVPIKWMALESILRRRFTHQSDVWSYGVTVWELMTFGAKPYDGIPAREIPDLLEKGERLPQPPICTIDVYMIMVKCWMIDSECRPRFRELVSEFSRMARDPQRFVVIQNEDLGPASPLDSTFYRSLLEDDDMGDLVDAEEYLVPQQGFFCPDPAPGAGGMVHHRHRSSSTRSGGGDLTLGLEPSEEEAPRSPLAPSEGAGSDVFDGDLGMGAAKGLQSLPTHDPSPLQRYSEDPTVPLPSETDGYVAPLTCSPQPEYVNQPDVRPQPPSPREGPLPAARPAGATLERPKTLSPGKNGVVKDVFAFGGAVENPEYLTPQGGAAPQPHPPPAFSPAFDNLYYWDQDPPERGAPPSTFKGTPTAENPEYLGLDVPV
Protocol: Inhibition of Phosphorylation of Receptor Tyrosine in Human Breast Cancer Cells
In each well of a 24-well plate, 500 μl of the cell suspension ([…]) of human breast cancer cell line MCF-7 was seeded and incubated at 37° C. in a 5% carbon dioxide gas incubator. On the next day, 250 μl of a 4-fold serial dilution of a solution of a test compound was added to each well and, 2 hours later, 250 μl of a heregulin solution, which was adjusted so as to be the final concentration of 0.8 μg/mL, was added thereto. After 5 minutes, an extracting solution was added thereto to terminate the reaction as well as to extract a protein. The protein was fractionated by protein electrophoresis and the protein in the electrophoretic gel was transferred to a nylon filter. The filter was reacted with a phosphorylated tyrosine-specific antibody. The reaction product was fluorescence-labeled and was exposed to a photo-film. The intensity of the exposure on the photo-film was quantitated by an image-analyzing apparatus.

[2] = Measurement of size of crystalline particulate (laser diffraction/scattering); format: physicochemical; settings: distilled water as dispersion medium, SALD-2000A
Protocol: The average particle size can be measured by using a per se known method and a measuring equipment. The term “average particle size” refers to a volume-average particle size as measured, for example, by a laser diffraction/scattering particle size distribution measuring apparatus (for example, SALD-2000A manufactured by Shimadzu Corporation). The particle size is usually measured by uniformly dispersing a HER2 inhibitor suspension at a concentration of about 1 to 100 μg/ml at room temperature while being subjected to ultra-sonication for a short period of time such as within 1 minute, or while stirring using a vortex mixer. The aqueous solvent used in the measurement is usually water, but buffer solutions having various pH's, a pseudo-body fluid and 0.5% methyl cellulose solution may be used. […]
The size of fine particles in the suspension of the drug of crystalline particulate obtained in Example 1 was measured. […] Further, the size of particles obtained by comminuting bulk of the compound of Reference Example B4, which was used in Example 1, with a jet mill was measured in the same manner.
The size of fine particles in the suspension of the drug of crystalline particulate obtained in Example 4a was measured. […] Further, crystalline particulate obtained in Example 8a were dispersed again in distilled water and the size of fine particles of the drug was measured in the same manner.

[3] = test system: Human breast cancer cell line BT-474; assay: In vivo breast cancer inhibiting effect (BT-474 implanted in nude mice); settings: nude mice with BT-474 tumors, orally twice daily 30 mg/kg body weight for 10 days
Protocol: In Vivo Breast Cancer Inhibiting Effect
Human breast cancer cell line BT-474 (5,000,000 cells) were suspended in a gel-matrix solution. The suspension was subcutaneously implanted in the breast of 6-week-old female Balb/C strain nude mice (Friedman R. et al., Proceedings of the National Academy of Sciences of the U.S.A. Vol. 87, pp. 6698-6702, 1990). At the time of the implantation and seven days after the implantation, an estradiol dipropionate solution (5 mg/mL) was intramuscularly administered to the hind leg for the purpose of enhancing a take ratio of tumors. Fourteen days after the implantation, the diameters of tumors were determined. For the experiment were used 5 mice per group with similar tumor size. Each of compounds (4, 6, 14, 17, 19, 20, 23, 24 and 26) of the present invention was suspended in a 5% gum arabic solution (physiological saline) and administered orally twice daily in dose of 30 mg/kg body weight for 10 days. On the day when the administration was terminated, the diameters of tumors were measured. Tumor volume was calculated by the following equation.
Volume of tumor=longest diameter×shortest diameter×shortest diameter×½
The growth rate of tumors was calculated as the proportion of the value obtained by subtracting the initial volume from the final volume in the group to which the drug was administered, to the value obtained by subtracting the initial volume from the final volume in the control group to which a gum arabic solution was administered.

With `FC(F)(F)c1ccc(/C=C/c2nc(COc3ccc(CCCCn4ccnn4)cc3)co2)cc1` [Reference Example B4, 1-(4-{4-[(2-{(E)-2-[4-(Trifluoromethyl)phenyl]ethenyl}-1,3-oxazol-4-yl)methoxy]phenyl}butyl)-1H-1,2,3-triazole] the IC50 [1] was under 0.05 µM, the IC50 (HER2) was 0.1 µM and the “Average particle size (μm)” value [2] was at most 4 μm. For the same compound, the “Average particle size (μm)” value ([2]; listed as Reference Example 4B) was 3.85 μm and the “Inhibition ratio (%)” value [3] was 5%.
